Assays:
AZD4320 = compound: CN(CC[C@H](CSC1=CC=CC=C1)NC2=C(C=C(C=C2)S(=O)(=O)NC(=O)C3=CC=C(C=C3)N4CCC(CC4)[C@H](C5=CC=CC=C5C6=CC=C(C=C6)Cl)O)S(=O)(=O)C(F)(F)F)CCO [AZD4320]; details: max 1 µM
Summary of the method: (§1)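 Plates with 1536 wells received cancer cell lines in 7.5 μl of DMEM/F12 or RPMI containing 10% FBS. After 24 hours at 37°C and 5% CO2, cells were dosed for 72 hours with final DMSO typically 0.2%, and viability was read by CellTiter-Glo 2.0 luminescence scaled between blank-well and DMSO-well means. The single-agent IC50 was taken from a logistic fit of the dose responses made with a non-linear mixed effects model, that logistic curve having two parameters.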

Doxorubicin = compound: COc1cccc2c1C(=O)c1c(O)c3c(c(O)c1C2=O)C[C@@](O)(C(=O)CO)C[C@@H]3O[C@H]1C[C@H](N)[C@H](O)[C@H](C)O1 [Doxorubicin]; details: max 1 µM
Summary of the method: as §1

Gefitinib = compound: COc1cc2ncnc(Nc3ccc(F)c(Cl)c3)c2cc1OCCCN1CCOCC1 [Gefitinib]; details: max 10 µM
Summary of the method: as §1

Venetoclax = compound: CC1(C)CCC(CN2CCN(c3ccc(C(=O)NS(=O)(=O)c4ccc(NCC5CCOCC5)c([N+](=O)[O-])c4)c(Oc4cnc5[nH]ccc5c4)c3)CC2)=C(c2ccc(Cl)cc2)C1 [Venetoclax]; details: max 1 µM
Summary of the method: as §1

Dasatinib = compound: CC1=C(C(=CC=C1)Cl)NC(=O)C2=CN=C(S2)NC3=CC(=NC(=N3)C)N4CCN(CC4)CCO [Dasatinib]; details: max 2 µM
Summary of the method: as §1

Palbociclib = compound: CC(=O)c1c(C)c2cnc(Nc3ccc(N4CCNCC4)cn3)nc2n(C2CCCC2)c1=O [Palbociclib]; details: max 10 µM
Summary of the method: as §1

AZD5363 = compound: C1CN(CCC1(C(=O)N[C@@H](CCO)C2=CC=C(C=C2)Cl)N)C3=NC=NC4=C3C=CN4 [AZD5363]; details: max 10 µM
Summary of the method: as §1

Olaparib = compound: O=C(c1cc(Cc2n[nH]c(=O)c3ccccc23)ccc1F)N1CCN(C(=O)C2CC2)CC1 [Olaparib]; details: max 10 µM
Summary of the method: as §1

Taselisib = compound: Cc1nc(-c2cn3c(n2)-c2ccc(-c4cnn(C(C)(C)C(N)=O)c4)cc2OCC3)n(C(C)C)n1 [Taselisib]; details: max 10 µM
Summary of the method: as §1

Paclitaxel = compound: CC(=O)O[C@H]1C(=O)[C@@]2(C)[C@H]([C@H](OC(=O)c3ccccc3)[C@]3(O)C[C@H](OC(=O)[C@H](O)[C@@H](NC(=O)c4ccccc4)c4ccccc4)C(C)=C1C3(C)C)[C@]1(OC(C)=O)CO[C@@H]1C[C@@H]2O [Paclitaxel]; details: max 3 µM
Summary of the method: as §1

AZD0156 = compound: CN(C)CCCOc1ccc(-c2ccc3ncc4c(c3c2)n(C2CCOCC2)c(=O)n4C)cn1 [AZD0156]; details: max 3 µM
Summary of the method: as §1

AZD5991 = compound: Cc1c2c(nn1C)CSCc1cc(n(C)n1)CSc1cc(c3ccccc3c1)OCCCc1c(C(=O)O)n(C)c3c-2c(Cl)ccc13 [AZD5991]; details: max 1 µM
Summary of the method: as §1

Lapatinib = compound: CS(=O)(=O)CCNCc1ccc(-c2ccc3ncnc(Nc4ccc(OCc5cccc(F)c5)c(Cl)c4)c3c2)o1 [Lapatinib]; details: max 10 µM
Summary of the method: as §1

AZD6738 = compound: C[C@@H]1COCCN1C2=NC(=NC(=C2)C3(CC3)[S@](=N)(=O)C)C4=C5C=CNC5=NC=C4 [AZD6738]; details: max 10 µM
Summary of the method: as §1

AZD5153 = compound: COc1nnc2ccc(N3CCC(c4ccc(OCCN5CCN(C)C(=O)[C@H]5C)cc4)CC3)nn12 [AZD5153]; details: max 1 µM
Summary of the method: as §1

Carboplatin = compound: C1CC(C1)(C(=O)[O-])C(=O)[O-].N.N.[Pt+2] [Carboplatin]; details: max 10 µM
Summary of the method: as §1

MK-2206 = compound: NC1(c2ccc(-c3nc4ccn5c(=O)[nH]nc5c4cc3-c3ccccc3)cc2)CCC1 [MK-2206]; details: max 10 µM
Summary of the method: as §1

Etoposide = compound: COc1cc([C@@H]2c3cc4c(cc3[C@@H](O[C@@H]3O[C@@H]5CO[C@@H](C)O[C@H]5[C@H](O)[C@H]3O)[C@H]3COC(=O)[C@H]23)OCO4)cc(OC)c1O [Etoposide]; details: max 10 µM
Summary of the method: as §1

Trametinib = compound: CC(=O)Nc1cccc(-n2c(=O)n(C3CC3)c(=O)c3c(Nc4ccc(I)cc4F)n(C)c(=O)c(C)c32)c1 [Trametinib]; details: max 1 µM
Summary of the method: as §1

[1] = compound: O=C(Nc1ccc2[nH]nc(-c3ccncc3)c2c1)[C@@H]1CCN(CC(=O)N2CCN(c3ccc(-c4ncccn4)cc3)CC2)C1; details: max 5 µM
Summary of the method: as §1

Crizotinib = compound: C[C@@H](Oc1cc(-c2cnn(C3CCNCC3)c2)cnc1N)c1c(Cl)ccc(F)c1Cl [Crizotinib]; details: max 10 µM
Summary of the method: as §1

Savolitinib = compound: C[C@@H](c1ccc2nccn2c1)n1nnc2ncc(-c3cnn(C)c3)nc21 [Savolitinib]; details: max 1 µM
Summary of the method: as §1

AZD7648 = compound: Cc1cc2ncnn2cc1Nc1ncc2c(n1)n(C1CCOCC1)c(=O)n2C [AZD7648]; details: max 10 µM
Summary of the method: as §1

AZD8186 = compound: C[C@@H](Nc1cc(F)cc(F)c1)c1cc(C(=O)N(C)C)cc2c(=O)cc(N3CCOCC3)oc12 [AZD8186]; details: max 10 µM
Summary of the method: as §1

Prexasertib = compound: COc1cccc(OCCCN)c1-c1cc(Nc2cnc(C#N)cn2)n[nH]1 [Prexasertib]; details: max 1 µM
Summary of the method: as §1

Alisertib = compound: COc1cc(Nc2ncc3c(n2)-c2ccc(Cl)cc2C(c2c(F)cccc2OC)=NC3)ccc1C(=O)O [Alisertib]; details: max 10 µM
Summary of the method: as §1

5-Fluorouracil = compound: O=c1[nH]cc(F)c(=O)[nH]1 [5-Fluorouracil]; details: max 20 µM
Summary of the method: as §1

AZD1390 = compound: CC(C)n1c(=O)n(C)c2cnc3cc(F)c(-c4ccc(OCCCN5CCCCC5)nc4)cc3c21 [AZD1390]; details: max 0.3 µM
Summary of the method: as §1

AZD1775 = compound: C=CCn1c(=O)c2cnc(Nc3ccc(N4CCN(C)CC4)cc3)nc2n1-c1cccc(C(C)(C)O)n1 [AZD1775]; details: max 3 µM
Summary of the method: as §1

SN-38 = compound: CCc1c2c(nc3ccc(O)cc13)-c1cc3c(c(=O)n1C2)COC(=O)[C@]3(O)CC [SN-38]; details: max 0.3 µM
Summary of the method: as §1

AZD2811 = compound: CCN(CCO)CCCOc1ccc2c(Nc3cc(CC(=O)Nc4cccc(F)c4)[nH]n3)ncnc2c1 [AZD2811]; details: max 1 µM
Summary of the method: as §1

SRA737 = compound: N#Cc1cnc(Nc2cc(NC[C@H]3CNCCO3)c(C(F)(F)F)cn2)cn1 [SRA737]; details: max 10 µM
Summary of the method: as §1

Gemcitabine = compound: Nc1ccn([C@@H]2O[C@H](CO)[C@@H](O)C2(F)F)c(=O)n1 [Gemcitabine]; details: max 0.3 µM
Summary of the method: as §1

Selumetinib = compound: Cn1cnc2c(F)c(Nc3ccc(Br)cc3Cl)c(C(=O)NOCCO)cc21 [Selumetinib]; details: max 10 µM
Summary of the method: as §1

SG3199 = compound: CC1=CN2[C@@H](C1)C=NC3=CC(=C(C=C3C2=O)OC)OCCCCCOC4=C(C=C5C(=C4)N=C[C@@H]6CC(=CN6C5=O)C)OC [SG3199]; details: max 0.001 µM
Summary of the method: as §1

| Cell Line | IC50, cell viability 72 h (AZD4320) [nM] | IC50, cell viability 72 h (Doxorubicin) [nM] | IC50, cell viability 72 h (Gefitinib) [nM] | IC50, cell viability 72 h (Venetoclax) [nM] | IC50, cell viability 72 h (Dasatinib) [nM] | IC50, cell viability 72 h (Palbociclib) [nM] | IC50, cell viability 72 h (AZD5363) [nM] | IC50, cell viability 72 h (Olaparib) [nM] | IC50, cell viability 72 h (Taselisib) [nM] | IC50, cell viability 72 h (Paclitaxel) [nM] | IC50, cell viability 72 h (AZD0156) [nM] | IC50, cell viability 72 h (AZD5991) [nM] | IC50, cell viability 72 h (Lapatinib) [nM] | IC50, cell viability 72 h (AZD6738) [nM] | IC50, cell viability 72 h (AZD5153) [nM] | IC50, cell viability 72 h (Carboplatin) [nM] | IC50, cell viability 72 h (MK-2206) [nM] | IC50, cell viability 72 h (Etoposide) [nM] | IC50, cell viability 72 h (Trametinib) [nM] | IC50, cell viability 72 h [1] [nM] | IC50, cell viability 72 h (Crizotinib) [nM] | IC50, cell viability 72 h (Savolitinib) [nM] | IC50, cell viability 72 h (AZD7648) [nM] | IC50, cell viability 72 h (AZD8186) [nM] | IC50, cell viability 72 h (Prexasertib) [nM] | IC50, cell viability 72 h (Alisertib) [nM] | IC50, cell viability 72 h (5-Fluorouracil) [nM] | IC50, cell viability 72 h (AZD1390) [nM] | IC50, cell viability 72 h (AZD1775) [nM] | IC50, cell viability 72 h (SN-38) [nM] | IC50, cell viability 72 h (AZD2811) [nM] | IC50, cell viability 72 h (SRA737) [nM] | IC50, cell viability 72 h (Gemcitabine) [nM] | IC50, cell viability 72 h (Selumetinib) [nM] | IC50, cell viability 72 h (SG3199) [nM] |
| --- | --- | --- | --- | --- | --- | --- | --- | --- | --- | --- | --- | --- | --- | --- | --- | --- | --- | --- | --- | --- | --- | --- | --- | --- | --- | --- | --- | --- | --- | --- | --- | --- | --- | --- | --- |
| NCI-H2023 (Non-Small Cell Lung Carcinoma) | > 1000 | 225 | > 10000 | > 1000 | > 2000 | > 10000 | > 10000 | > 10000 | 3870 | 531 | > 3000 | > 1000 | > 10000 | 3500 | > 1000 | > 10000 | > 10000 | > 10000 | > 1000 | > 5000 | > 10000 | > 1000 | > 10000 | > 10000 | 30.6 | > 10000 | 11900 | > 300 | 2020 | 110 | > 1000 | > 10000 | 134 | > 10000 | > 1 |
| NCI-H2009 (Lung Adenocarcinoma) | > 1000 | > 1000 | > 10000 | > 1000 | > 2000 | > 10000 | > 10000 | > 10000 | 6380 | 162 | > 3000 | > 1000 | > 10000 | > 10000 | > 1000 | > 10000 | > 10000 | > 10000 | 407 | > 5000 | > 10000 | > 1000 | > 10000 | > 10000 | 846 | 8100 | > 20000 | > 300 | 1020 | 190 | > 1000 | > 10000 | > 300 | > 10000 | > 1 |
| OVKATE (Ovarian Carcinoma) | > 1000 | > 1000 | > 10000 | > 1000 | > 2000 | > 10000 | > 10000 | > 10000 | > 10000 | > 3000 | > 3000 | > 1000 | > 10000 | > 10000 | > 1000 | > 10000 | > 10000 | > 10000 | > 1000 | > 5000 | > 10000 | > 1000 | > 10000 | > 10000 | > 1000 | > 10000 | > 20000 | > 300 | > 3000 | > 300 | > 1000 | > 10000 | > 300 | > 10000 | > 1 |
| NCI-H2452 (Mesothelioma) | > 1000 | > 1000 | > 10000 | > 1000 | 531 | > 10000 | > 10000 | > 10000 | > 10000 | 97 | > 3000 | > 1000 | > 10000 | > 10000 | > 1000 | > 10000 | > 10000 | > 10000 | > 1000 | > 5000 | > 10000 | > 1000 | > 10000 | > 10000 | 244 | 8630 | > 20000 | > 300 | 710 | > 300 | > 1000 | > 10000 | > 300 | > 10000 | > 1 |

From the supplement of paper PMC11061612
